Laboratory results as given in patent US11117885B2, “Compounds having estrogen receptor alpha degradation activity and uses thereof” (ACCUTAR BIOTECHNOLOGY INC., priority 2018, dated 2021).

These molecules were tested against T1, ERα (Homo sapiens, UniProt P03372) (assay: ERα degradative activity in T47D cells (western blot, densitometry)). Conditions: T47D cell line; concentration at which 50% of the target protein (ERα) is degraded.
T1 sequence (P03372 1-595): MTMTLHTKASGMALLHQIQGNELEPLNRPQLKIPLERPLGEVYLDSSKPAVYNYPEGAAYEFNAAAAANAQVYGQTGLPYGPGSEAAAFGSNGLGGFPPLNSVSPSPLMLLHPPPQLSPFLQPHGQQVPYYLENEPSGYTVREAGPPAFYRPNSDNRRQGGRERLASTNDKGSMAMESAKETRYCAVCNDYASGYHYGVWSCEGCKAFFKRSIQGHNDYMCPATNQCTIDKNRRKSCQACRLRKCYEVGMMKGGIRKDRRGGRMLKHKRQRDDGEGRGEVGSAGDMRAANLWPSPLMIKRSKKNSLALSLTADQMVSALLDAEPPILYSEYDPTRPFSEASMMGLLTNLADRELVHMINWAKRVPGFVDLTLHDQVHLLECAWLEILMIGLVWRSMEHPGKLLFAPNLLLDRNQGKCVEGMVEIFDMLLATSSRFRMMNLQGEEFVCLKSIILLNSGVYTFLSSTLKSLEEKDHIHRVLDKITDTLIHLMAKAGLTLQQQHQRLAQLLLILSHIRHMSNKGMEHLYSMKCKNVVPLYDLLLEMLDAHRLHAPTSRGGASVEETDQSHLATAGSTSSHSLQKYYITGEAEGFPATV
Assay type: cell-based
Set-up: endogenous in cells; host or cells: T47D
Description: T47D cells were plated in 24-well plates at 1.5×10^5 cells/well in the RPMI growth medium containing 10% FBS and 1× Penicillin Streptomycin, and then incubated at 37° C. overnight. The following day, the test compound was administered to the cells by using 1000× compound stock solution prepared in DMSO at various concentrations. After administration of the compound, the cells were then incubated at 37 C for various period of treatment time, e.g., as indicated in the figures.
Upon completion, the cells were washed with PBS and protein was collected in Laemmli sample buffer (1×; VWR International). Protein was isolated from cell lysate (approximately 25 μg) by SDS-PAGE and transferred to nitrocellulose membranes. Non-specific binding was blocked by incubation with blocking buffer (5% milk in Tris-buffered saline with 0.1% Tween 20 (“TBS-T”)) at rt for 60 minutes.
The membrane was then incubated with primary antibodies (mouse anti-ERα (1:500, Santa Cruz), mouse anti-GAPDH (1:5,000, Santa Cruz), or mouse anti-actin (1:4,000, Santa Cruz)) overnight at 4° C., followed by washing (3 times) with TBS-T, and then incubation with horseradish peroxidase-conjugated rabbit anti-mouse IgG (1:5,000) for 60 minutes. After the TBS-T washes, blots were developed with an enhanced chemiluminescence kit (ThermoFisher Scientific) and the bands were imaged and quantified by densitometry (Bio-Rad).
The DC50 values (i.e., the concentration of test compound at which 50% of the target protein is degraded) was calculated for various compounds of the present disclosure and are shown in the Table 3, below. A corresponds to a DC50 value less than or equal to 1.5 μM; B corresponds to a DC50 value greater than 1.5 μM and less than 3 μM; and C corresponds to a DC50 value greater than 3 μM.

| SMILES | DC50 [nM] |
| --- | --- |
| CC/C(=C(\c1ccccc1)c1ccc(OCCN(C)C(=O)CCOCCOCCOCCOCCNc2cccc3c2C(=O)N(C2CCC(=O)NC2=O)C3=O)cc1)c1ccccc1 (stereo not shown) [Compound 54, (Z)-1-((2-(2,6-dioxopiperidin-3-yl)-1,3-dioxoisoindolin-4-yl)amino)-N-(2-(4-(1,2-diphenylbut-1-en-1-yl)phenoxy)ethyl)-N-methyl-3,6,9,12-tetraoxapentadecan-15-amide] | ≤ 1500 |
| CC/C(=C(\c1ccccc1)c1ccc(OCCN(C)C(=O)CCOCCOCCOCCOCCOCCNc2cccc3c2C(=O)N(C2CCC(=O)NC2=O)C3=O)cc1)c1ccccc1 (stereo not shown) [Compound 64, (Z)-1-((2-(2,6-dioxopiperidin-3-yl)-1,3-dioxoisoindolin-4-yl)amino)-N-(2-(4-(1,2-diphenylbut-1-en-1-yl)phenoxy)ethyl)-N-methyl-3,6,9,12,15-pentaoxaoctadecan-18-amide] | ≤ 1500 |
| CC/C(=C(\c1ccccc1)c1ccc(OCCN(C)C(=O)CNc2cccc3c2C(=O)N(C2CCC(=O)NC2=O)C3=O)cc1)c1ccccc1 (stereo not shown) [Compound 88, (Z)-2-((2-(2,6-dioxopiperidin-3-yl)-1,3-dioxoisoindolin-4-yl)amino)-N-(2-(4-(1,2-diphenylbut-1-en-1-yl)phenoxy)ethyl)-N-methylacetamide] | > 3000 |
| CC/C(=C(\c1ccccc1)c1ccc(OCCN(C)C(=O)CCCNc2cccc3c2C(=O)N(C2CCC(=O)NC2=O)C3=O)cc1)c1ccccc1 (stereo not shown) [Compound 108, (Z)-4-((2-(2,6-dioxopiperidin-3-yl)-1,3-dioxoisoindolin-4-yl)amino)-N-(2-(4-(1,2-diphenylbut-1-en-1-yl)phenoxy)ethyl)-N-methylbutanamide] | ≤ 1500 |
| CC/C(=C(\c1ccccc1)c1ccc(OCCN(C)C(=O)CCCCCNc2cccc3c2C(=O)N(C2CCC(=O)NC2=O)C3=O)cc1)c1ccccc1 (stereo not shown) [Compound 120, (Z)-6-((2-(2,6-dioxopiperidin-3-yl)-1,3-dioxoisoindolin-4-yl)amino)-N-(2-(4-(1,2-diphenylbut-1-en-1-yl)phenoxy)ethyl)-N-methylhexanamide] | ≤ 1500 |
| CC/C(=C(\c1ccccc1)c1ccc(OCCN(C)C(=O)CCCCCCNc2cccc3c2C(=O)N(C2CCC(=O)NC2=O)C3=O)cc1)c1ccccc1 (stereo not shown) [Compound 126, (Z)-7-((2-(2,6-dioxopiperidin-3-yl)-1,3-dioxoisoindolin-4-yl)amino)-N-(2-(4-(1,2-diphenylbut-1-en-1-yl)phenoxy)ethyl)-N-methylheptanamide] | 1500 to 3000 |
| CC/C(=C(\c1ccccc1)c1ccc(OCCN(C)C(=O)CCCCCCCNc2cccc3c2C(=O)N(C2CCC(=O)NC2=O)C3=O)cc1)c1ccccc1 (stereo not shown) [Compound 143, (Z)-8-((2-(2,6-dioxopiperidin-3-yl)-1,3-dioxoisoindolin-4-yl)amino)-N-(2-(4-(1,2-diphenylbut-1-en-1-yl)phenoxy)ethyl)-N-methyloctanamide] | 1500 to 3000 |

Next, values leading:

| DC50 [nM] | SMILES |
| --- | --- |
| > 3000 | CC/C(=C(\c1ccccc1)c1ccc(OCCN(C)C(=O)CCOCCNc2cccc3c2C(=O)N(C2CCC(=O)NC2=O)C3=O)cc1)c1ccccc1 (stereo not shown) [Compound 8, (Z)-3-(2-((2-(2,6-dioxopiperidin-3-yl)-1,3-dioxoisoindolin-4-yl)amino)ethoxy)-N-(2-(4-(1,2-diphenylbut-1-en-1-yl)phenoxy)ethyl)-N-methylpropanamide] |
| > 3000 | CC/C(=C(\c1ccccc1)c1ccc(OCCN(C)C(=O)CCOCCOCCNc2cccc3c2C(=O)N(C2CCC(=O)NC2=O)C3=O)cc1)c1ccccc1 (stereo not shown) [Compound 15, (Z)-3-(2-(2-((2-(2,6-Dioxopiperidin-3-yl)-1,3-dioxoisoindolin-4-yl)amino)ethoxy)ethoxy)-N-(2-(4-(1,2-diphenylbut-1-en-1-yl)phenoxy)ethyl)-N-methylpropanamide] |
| ≤ 1500 | CC/C(=C(\c1ccccc1)c1ccc(OCCN(C)C(=O)CCNc2cccc3c2C(=O)N(C2CCC(=O)NC2=O)C3=O)cc1)c1ccccc1 (stereo not shown) [Compound 89, (Z)-3-((2-(2,6-dioxopiperidin-3-yl)-1,3-dioxoisoindolin-4-yl)amino)-N-(2-(4-(1,2-diphenylbut-1-en-1-yl)phenoxy)ethyl)-N-methylpropanamide] |
